# Measured values from ChEMBL document CHEMBL1159350, “Hemolytic steroid disulfates from the far eastern starfish Pteraster pulvillus” (J Nat Prod, 2003).
# Experiment: Toxicity in mouse erythrocytes assessed as hemolytic activity
# Format: cell-based, Erythrocyte
row,SMILES,HC50
1,CC(C)CCC[C@@H](COS(=O)(=O)O)[C@H]1CC[C@H]2[C@@H]3CC[C@H]4C[C@H](OS(=O)(=O)O)CC[C@]4(C)[C@H]3CC[C@]12C,10 µM
2,CC(C)CCC[C@@H](COS(=O)(=O)O)[C@H]1CC[C@H]2[C@@H]3CC[C@H]4C[C@H](OS(=O)(=O)O)CC[C@]4(C)[C@H]3CC[C@]12C.NCCc1ccc(O)cc1.NCCc1ccc(O)cc1,18 µM
3,CC(C)CCC[C@@H](COS(=O)(=O)O)[C@H]1CC[C@H]2[C@@H]3CC=C4C[C@H](OS(=O)(=O)O)CC[C@]4(C)[C@H]3CC[C@]12C.NCCc1ccc(O)cc1,33 µM
4,CC(C)CCC[C@@H](COS(=O)(=O)O)[C@H]1CC[C@H]2[C@@H]3CC[C@H]4[C@@H](O)[C@H](OS(=O)(=O)O)CC[C@]4(C)[C@H]3CC[C@]12C,45 µM
5,CC(C)CCC[C@@H](COS(=O)(=O)O)[C@H]1CC[C@H]2[C@@H]3CC=C4[C@@H](O)[C@H](OS(=O)(=O)O)CC[C@]4(C)[C@H]3CC[C@]12C,80 µM
